Read-outs that look alike come from different tables or passages of the source.

In experiment [1] the test system is MCF-10A. Nature of the experiment: Selectivity: growth inhibition in non-tumorigenic cell line. It counts as cell-based, human. As to conditions: 72 h, maximum 25 μM, read-out: IC50 Breast MCF-10A. As to the method: (§1) This assessment of the growth inhibitory activity of the compounds was tested in quadruplicate at a maximum concentration of 25 μM, followed by 10 serially diluted concentrations.
A549, IEC-6, MCF-10A and 3t3 cells were harvested from 90-95% confluent cultures in 10 cm dishes, and diluted in growth media recommended by the suppliers as follows: A549 cells were cultured in RPMI-1640 medium supplemented with 5% fetal bovine serum (FBS). IEC-6 cells were obtained from ATCC and cultured in Dulbecco’s modified Eagle’s medium (DMEM) supplemented with 10% FBS and 0.1 unit/mL recombinant insulin. Swiss 3t3 cells were obtained from ATCC and cultured in DMEM supplemented with 10% FBS. MCF-10Acells were obtained from ATCC and cultured in a mixture DMEM and F12 media supplemented with 5% fetal bovine serum (FBS), 20 ng/mL recombinant epidermal growth factor, 10 µg/mL insulin, 0.5 µg/mL hydrocortisone and 100 ng/mL cholera toxin. An appropriate concentration of cells was prepared to add 1,250 cells in a volume of 25 µL per well in tissue culture treated BD 384-well microplates, then incubated overnight at 37 °C.
Compound 7e and the positive control, sunitinib, were diluted to a concentration of 25 µM in DMSO. Concentrated dosing solutions (double the final concentration) were prepared by dilution of the DMSO stocks 1:500 in growth medium. Two-fold serial dilutions were then prepared in medium containing 0.2% DMSO to maintain a constant concentration of vehicle throughout the concentration range of the compound. […]
At the end of the treatment period, assay plates were allowed to cool to RT for 10 min prior to addition of 25 µL per well Promega CellTiterGlo reagent, followed by an additional 10 min incubation at RT. The resulting luminescence was quantitated using a Molecular Devices Spectramax Paradigm.Percent growth inhibition was calculated using equation (1). The potency of compounds was determined using the non-linear dose response algorithm (four-parameter logistic fit) with GraphPad Prism 5 software.

The test system of experiment [2] is IEC-6, MCF-10A, Swiss 3t3 versus A-549. Nature of the experiment: Tumor cell selectivity, non-tumor cell lines versus NSCLC cells. The class given is cell-based. Particulars: for Mean tumor selectivity: mean IC50 in non-tumor cell lines versus NSCLC cells. As for the experimental part: as §1
As indicated in Fig 7 and Table 4, compound 7e inhibited growth in both normal and tumor cell lines >50%.

For experiment [3], the system named is NCI-H69AR. Nature of the experiment: Growth inhibition in multidrug resistant lung cancer cell line. It counts as cell-based. Particulars: 72 h, maximum 25 μM. As for the experimental part:
Compound 7e was analyzed for cancer cell growth inhibitory activity in a sensitive NSCLC cell line (A549) and a multidrug resistant lung cancer cell line (NCI-H69AR) which expresses the ABCC1 efflux pump protein. This assessment of activity tested compounds in quadruplicate at a maximum concentration of 25 μM, followed by 10 serially diluted concentrations.
A549 and H69AR cells were harvested from 90-95% confluent 10 cm dishes, and diluted in growth media. An appropriate concentration of cells was prepared to add 1,250 cells in a volume of 25 µL per well in tissue culture treated BD 384-well microplates, then incubated overnight at 37 °C.
Compound 7e was diluted to a concentration of 25 µM in DMSO. Concentrated dosing solutions (double the final concentration) were prepared by dilution of the DMSO stocks 1:500 in growth medium. Two-fold serial dilutions were then prepared in medium containing 0.2% DMSO to maintain a constant concentration of vehicle throughout the concentration range of the compound. Each of these was added in equal volume (25 µL), to four wells on each cell assay plate, along with the vehicle control. The highest concentration for serial dilution of the positive control compound sunitinib was prepared exactly as the experimental compound 7e. Cells were incubated at 37°C with the compounds for a further 72 h. At the end of the treatment period, assay plates were allowed to cool to RT for 10 min prior to addition of 25 µL per well Promega CellTiterGlo reagent, followed by an additional 10 min incubation at RT. The resulting luminescence was quantitated using a Molecular Devices Spectramax Paradigm.
Percent growth inhibition was calculated using equation (1). The potency of compounds was determined using the non-linear dose response algorithm (four-parameter logistic fit) with GraphPad Prism 5 software.

The term IC50 denotes the point on the concentration scale where inhibition reaches its midpoint. For `CCN(CC)CCNC(=O)c1c(C)[nH]c(/C=C2\C(=O)Nc3ccc(F)cc32)c1C` [Sunitinib, sunitinib, reference compound], the IC50 was determined as 4.43 µM in experiment [1] (Homo sapiens, MCF-10A); 5.8 µM in experiment [3]; 5.83 µM in experiment [3] (NCI-H69AR). In experiment [2], this compound registered a Mean tumor selectivity of 1.4.
As to `O=C1Nc2ccc(Br)cc2C1=NN=C1C(=O)N(Cc2ccccc2)c2ccccc21` [Compound 7e, 1-Benzyl-3-((5-bromo-2-oxoindolin-3-ylidene)hydrazono)indolin-2-one], the half-inhibitory concentration (IC50) in experiment [1] was determined as 1.75 µM; in experiment [1] (Homo sapiens, MCF-10A), 1.76 µM; in experiment [3], 12.7 µM; in experiment [3] (NCI-H69AR), 12.7 µM. The compound further had a Mean tumor selectivity in experiment [2] of 1.7. The “Growth inhibition in both normal and tumor cell lines” value in experiment [2] (up to 25 μM) is recorded as more than 50%.
